The values that follow come from patent US20240270776A1, “PALLADIUM VINYL AND BUTADIENYL COMPOUNDS AS CHEMOTHERAPEUTIC AGENTS” (UNIVERSITÀ CA' FOSCARI VENEZIA, priority 2021, published 2024).

Common to all, as to format: cell-based
One assay relates to DLD1 (colon cancer). Put plainly: IC50 against tumor cell line DLD1, CellTiter-Glo cell viability. Conditions: DLD1 cells, 96 hours, mean ± standard deviation of triplicate. As to the method: (§1) Example 11: evaluation of the therapeutic efficacy of the compounds of the invention.
(§2) Tests were carried out to determine the inhibitory concentration (IC50) of the compounds of the invention against tumor cell lines and on a control cell line; for comparison, the same tests were carried out with the cisplatin compound.
(§3) The cell lines tested were: A2780 and A2780cis, (ovarian cancer), MDA-MB231 (triple-negative breast cancer) and DLD1 (colon cancer) and MRC-5 (control; lung fibroblasts).
(§4) The stock solutions were obtained in dimethyl sulfoxide for compounds I-X and in H^20 for cisplatin.
(§5) The cells were kept, in accordance with the protocols indicated by the suppliers, at 37° C. in an atmosphere containing 5% carbon dioxide. About 500 cells were plated on 96 different wells and kept under such conditions for 96 hours.
(§6) Cell viability was determined, after treatment of the cells with a 1:1 solution of CellTiter-Glo® (registered trademark of Promega Corp., Madison, Wisconsin, USA) and DPBS, with the Tecan Infinite® M1000 instrument. IC50 values were calculated from dose response curves. The means and standard deviations were obtained from tripled measurements.

The test system of assay [1] is A2780cis (ovarian cancer). Put plainly: IC50 against tumor cell line A2780cis, CellTiter-Glo cell viability. The procedure: as §1, §2, §3, §4, §5, §6
For orientation: Cellular ATP, detected with luciferase, serves as a proxy for viable cell number.

Assay [2] concerns MRC-5 (control; lung fibroblasts). Put plainly: IC50 on control cell line MRC-5, CellTiter-Glo cell viability. Conditions: MRC-5 normal cells. As to the method: as §1, §2, §3, §4, §5, §6
Assay [3] has as its system MDA-MB231 (triple-negative breast cancer). The experiment in a line: IC50 against tumor cell line MDA-MB231, CellTiter-Glo cell viability. Conditions: MDA-MB231 cells, 96 hours, mean ± standard deviation of triplicate. The procedure:
as §1, §2, §3, §4, §5, §6

In a further assay the test system is A2780 (ovarian cancer). Put plainly: IC50 against tumor cell line A2780, CellTiter-Glo cell viability. The settings on record: A2780 cells, 96 hours, mean ± standard deviation of triplicate. As to the method:
as §1, §2, §3, §4, §5, §6

What is called IC50 is the point on the concentration scale where inhibition reaches its midpoint.

For the compound `N.N.[Cl][Pt][Cl]` [CISPLATIN, cis-diaminodichloroplatin (II)], the IC50 came to 0.63 ± 0.08 µM with DLD1 (colon cancer); 27 ± 5 µM in assay [1] (A2780cis cells, 96 hours, mean ± standard deviation of triplicate, read-out: IC50 (μM) A2780 cis); 8 ± 1 µM in assay [2] (96 hours, mean ± standard deviation of triplicate); 37 ± 9 µM in assay [3]; 0.4 ± 0.1 µM with A2780 (ovarian cancer).

Turning to `COC(=O)/C(C)=C(C(=O)OC)/C(C(=O)OC)=[C](/C(=O)OC)[Pd]1([Cl])[CH]2N(Cc3ccccc3)C=CN2CN2C=CN(Cc3ccccc3)[CH]21` (stereo not shown) [Compound VII], the “loss of activity between the two lines (A2780 to A2780cis)” value in assay [1] (A2780 vs A2780cis) is “ca. one order of magnitude”. In addition, the “activity against normal cells (MRC-5), in words” value in assay [2] was “substantially inactive”.
